{"source": "ChEMBL document CHEMBL1201862", "about": "“PubChem BioAssay data set” (2004)", "key": {"[1]": {"target": "NAD-dependent protein deacylase sirtuin-5, mitochondrial (Homo sapiens, UniProt Q9NXA8)", "sequence (Q9NXA8 whole entry)": "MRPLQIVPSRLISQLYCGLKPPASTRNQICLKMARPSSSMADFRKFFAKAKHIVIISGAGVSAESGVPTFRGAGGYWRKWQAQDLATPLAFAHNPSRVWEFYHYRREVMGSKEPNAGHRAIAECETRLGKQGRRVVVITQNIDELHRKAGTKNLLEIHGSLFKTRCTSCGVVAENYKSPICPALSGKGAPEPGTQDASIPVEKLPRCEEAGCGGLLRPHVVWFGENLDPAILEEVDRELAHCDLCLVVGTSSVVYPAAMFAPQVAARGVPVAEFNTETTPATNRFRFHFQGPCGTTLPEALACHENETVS", "experiment": "sirtuin-5 deacylation blockers, concentration series – biochemical, fluorescence imaging, cherry-pick, set 5, dose response (AID 720591);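 note: desuccinylation of succinyl peptide AMC substrate read as fluorescence after trypsin release; potency of inhibitors that lower fluorescence and may act on trypsin instead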"}, "[2]": {"system": "Streptococcus sp. 'group A'", "experiment": "Streptococcus pyogenes SK(-)GAS viability under kanamycin – luminescence, BacTiterGlo, confirmation, counter-screen for streptokinase expression inhibitor project, dose response (AID 1900)", "type": "functional, organism-based"}, "[3]": {"experiment": "Luminescence Cell-Based Dose Retest to Confirm Inhibitors of Cancer Stem Cells. [Related pubchem assays (depositor defined):AID2717, AID2721]", "type": "functional", "conditions": "Homo sapiens"}, "Streptokinase A": {"target": "T1, Streptokinase A (Streptococcus pyogenes serotype M1, UniProt P10520)", "T1 sequence (P10520 whole entry)": "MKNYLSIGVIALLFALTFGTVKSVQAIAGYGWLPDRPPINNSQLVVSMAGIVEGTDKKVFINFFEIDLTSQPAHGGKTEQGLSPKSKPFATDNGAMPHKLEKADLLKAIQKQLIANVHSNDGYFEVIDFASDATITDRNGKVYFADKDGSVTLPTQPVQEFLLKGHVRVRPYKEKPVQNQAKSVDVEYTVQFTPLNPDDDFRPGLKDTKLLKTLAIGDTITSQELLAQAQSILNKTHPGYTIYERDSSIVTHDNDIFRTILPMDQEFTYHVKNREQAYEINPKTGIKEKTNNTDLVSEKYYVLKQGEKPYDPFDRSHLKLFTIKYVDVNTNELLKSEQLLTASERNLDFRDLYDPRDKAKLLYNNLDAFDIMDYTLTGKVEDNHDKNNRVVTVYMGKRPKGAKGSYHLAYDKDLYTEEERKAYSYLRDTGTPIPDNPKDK", "experiment": "viability-normalized secreted streptokinase activity reduction – plasminogen activation absorbance, OD405, dose response (AID 1914);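 note: secreted streptokinase activity via plasminogen activation per viability signal from cell pellet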", "type": "functional, Streptococcus pyogenes M1 GAS"}, "INS1": {"system": "INS1", "experiment": "INS-1E survival protection against cytokine death – cell-based, luminescence, retest, dose response (AID 449756);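 note: cell death triggered by IL-1 beta plus TNF-alpha plus IFN-gamma mixture; protective hits raise ATP signal compared with cytokine alone wells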", "type": "functional", "conditions": "Rattus norvegicus"}, "[4]": {"target": "Disintegrin and metalloproteinase domain-containing protein 17 (Homo sapiens, UniProt P78536)", "experiment": "inhibition of ADAM17 substrate cleavage – biochemical, quenched FRET substrate, counter-screen for ADAM10 exosite inhibitor project, dose response (AID 743253)"}, "[5]": {"experiment": "viability of HCT116 lacking mutant beta-catenin – cell-based, human colon tumor, dose response (AID 1045);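 note: cells exposed to compound for 60 hours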", "type": "functional"}, "Streptococcus": {"system": "Streptococcus", "experiment": "GAS UMAA2166 growth inhibition – luminescence, BacTiterGlo, counter-screen for streptokinase expression inhibitor project, dose response (AID 1915);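 note: potency for reduction of bacterial viability or growth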", "type": "functional, organism-based"}, "[6]": {"experiment": "viability of PTEN-deleted HCT116 cells – cell-based, HCT116 PTEN knockout, dose response (AID 1047);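 note: cells exposed to compound for 60 hours before readout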", "type": "functional"}, "[7]": {"target": "Peroxisome proliferator-activated receptor gamma/Nuclear receptor coactivator 3 (Homo sapiens, UniProt P37231)", "experiment": "TR-FRET dose response biochemical High Throughput Screening assay for agonists of the steroid receptor coactivator 3 (SRC-3) recruitment by the peroxisome proliferator-activated receptor gamma (PPAR gamma): non-selective agonists. [Related pubchem assays: 1301 (Confirmation screen.), 1048 (Primary screen.)]", "type": "functional"}, "Ephrin type-A receptor 4": {"target": "Ephrin type-A receptor 4 (Mus musculus, UniProt Q03137)", "sequence (Q03137 whole entry)": "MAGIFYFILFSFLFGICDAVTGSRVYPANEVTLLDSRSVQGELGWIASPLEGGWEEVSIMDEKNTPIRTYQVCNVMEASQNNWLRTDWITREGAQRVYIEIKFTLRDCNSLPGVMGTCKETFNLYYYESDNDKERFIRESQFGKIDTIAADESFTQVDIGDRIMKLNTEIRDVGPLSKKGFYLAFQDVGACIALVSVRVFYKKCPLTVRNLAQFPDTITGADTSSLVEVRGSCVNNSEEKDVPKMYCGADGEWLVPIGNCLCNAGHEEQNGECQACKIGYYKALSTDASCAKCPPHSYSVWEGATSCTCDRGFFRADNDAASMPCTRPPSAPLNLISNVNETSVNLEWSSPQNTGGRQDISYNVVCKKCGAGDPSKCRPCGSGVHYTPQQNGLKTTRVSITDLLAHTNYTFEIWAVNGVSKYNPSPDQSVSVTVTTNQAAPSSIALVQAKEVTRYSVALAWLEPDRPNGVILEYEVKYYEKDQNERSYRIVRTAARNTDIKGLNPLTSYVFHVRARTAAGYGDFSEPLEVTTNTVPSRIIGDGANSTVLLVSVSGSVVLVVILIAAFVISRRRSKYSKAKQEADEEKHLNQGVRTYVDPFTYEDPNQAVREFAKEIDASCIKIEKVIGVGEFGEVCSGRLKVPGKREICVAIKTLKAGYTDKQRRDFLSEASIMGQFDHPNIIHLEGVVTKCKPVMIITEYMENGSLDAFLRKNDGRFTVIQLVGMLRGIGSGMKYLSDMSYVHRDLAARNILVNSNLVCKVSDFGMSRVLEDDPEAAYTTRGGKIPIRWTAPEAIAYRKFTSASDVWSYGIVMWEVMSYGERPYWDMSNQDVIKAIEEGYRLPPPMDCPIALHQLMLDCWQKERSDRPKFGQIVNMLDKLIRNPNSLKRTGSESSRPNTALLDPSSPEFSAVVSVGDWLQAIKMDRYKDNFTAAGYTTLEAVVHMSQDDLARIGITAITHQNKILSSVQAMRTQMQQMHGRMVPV", "experiment": "EphA4 ligand-binding antagonists – biochemical, colorimetric, mouse EphA4, primary screen (AID 689)", "type": "functional"}, "[8]": {"target": "Peroxisome proliferator-activated receptor gamma/Nuclear receptor coactivator 2 (Homo sapiens, UniProt P37231)", "sequence (P37231 whole entry)": "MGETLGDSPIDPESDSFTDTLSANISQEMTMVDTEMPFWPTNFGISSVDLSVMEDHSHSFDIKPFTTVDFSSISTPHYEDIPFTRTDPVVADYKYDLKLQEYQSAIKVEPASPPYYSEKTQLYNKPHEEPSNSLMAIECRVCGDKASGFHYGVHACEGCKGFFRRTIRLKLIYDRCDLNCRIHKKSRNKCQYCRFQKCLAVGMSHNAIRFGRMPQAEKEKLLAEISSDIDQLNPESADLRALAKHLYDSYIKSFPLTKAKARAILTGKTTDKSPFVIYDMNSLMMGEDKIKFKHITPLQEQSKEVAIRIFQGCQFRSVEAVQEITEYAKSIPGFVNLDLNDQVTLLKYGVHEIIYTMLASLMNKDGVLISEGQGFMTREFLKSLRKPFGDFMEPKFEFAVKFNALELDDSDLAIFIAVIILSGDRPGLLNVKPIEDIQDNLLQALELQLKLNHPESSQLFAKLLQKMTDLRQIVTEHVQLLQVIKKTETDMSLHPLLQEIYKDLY", "sequence (Q15596 whole entry, further chain)": "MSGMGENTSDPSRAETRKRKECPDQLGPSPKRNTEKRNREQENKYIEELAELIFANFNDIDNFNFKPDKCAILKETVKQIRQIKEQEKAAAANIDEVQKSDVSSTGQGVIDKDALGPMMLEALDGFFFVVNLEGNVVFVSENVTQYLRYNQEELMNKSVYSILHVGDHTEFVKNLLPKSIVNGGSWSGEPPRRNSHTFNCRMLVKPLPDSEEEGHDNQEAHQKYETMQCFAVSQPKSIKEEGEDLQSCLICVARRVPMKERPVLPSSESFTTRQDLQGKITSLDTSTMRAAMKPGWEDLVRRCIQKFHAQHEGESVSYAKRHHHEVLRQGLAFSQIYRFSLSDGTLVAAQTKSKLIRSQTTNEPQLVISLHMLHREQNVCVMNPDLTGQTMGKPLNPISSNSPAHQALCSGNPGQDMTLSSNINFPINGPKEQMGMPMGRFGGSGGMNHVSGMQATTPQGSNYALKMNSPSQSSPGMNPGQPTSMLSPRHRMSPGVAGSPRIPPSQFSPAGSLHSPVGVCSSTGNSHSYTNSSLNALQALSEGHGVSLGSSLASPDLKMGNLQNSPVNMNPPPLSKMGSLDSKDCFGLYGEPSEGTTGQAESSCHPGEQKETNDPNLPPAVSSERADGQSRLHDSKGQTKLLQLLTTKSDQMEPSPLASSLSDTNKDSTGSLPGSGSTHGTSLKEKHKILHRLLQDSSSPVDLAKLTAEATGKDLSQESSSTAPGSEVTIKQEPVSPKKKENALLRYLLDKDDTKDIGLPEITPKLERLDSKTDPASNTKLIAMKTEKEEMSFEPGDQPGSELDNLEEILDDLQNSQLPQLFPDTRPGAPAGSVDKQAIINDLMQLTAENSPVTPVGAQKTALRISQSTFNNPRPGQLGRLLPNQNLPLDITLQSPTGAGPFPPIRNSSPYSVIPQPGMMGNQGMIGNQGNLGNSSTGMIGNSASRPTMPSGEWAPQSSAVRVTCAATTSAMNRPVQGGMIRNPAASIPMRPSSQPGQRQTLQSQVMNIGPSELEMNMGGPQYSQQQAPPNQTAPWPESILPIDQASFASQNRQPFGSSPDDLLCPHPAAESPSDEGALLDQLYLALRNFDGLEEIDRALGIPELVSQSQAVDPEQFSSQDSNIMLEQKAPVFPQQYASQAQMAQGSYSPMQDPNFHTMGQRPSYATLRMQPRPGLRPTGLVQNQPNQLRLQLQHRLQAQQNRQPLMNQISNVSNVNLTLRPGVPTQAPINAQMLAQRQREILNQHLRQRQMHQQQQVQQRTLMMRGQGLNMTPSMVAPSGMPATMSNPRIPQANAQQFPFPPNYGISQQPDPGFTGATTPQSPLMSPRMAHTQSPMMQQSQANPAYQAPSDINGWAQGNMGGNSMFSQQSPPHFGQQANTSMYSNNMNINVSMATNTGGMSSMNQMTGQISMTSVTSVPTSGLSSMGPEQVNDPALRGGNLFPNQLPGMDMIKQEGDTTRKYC", "experiment": "(§1) TR-FRET dose response biochemical High Throughput Screening assay for agonists of the steroid receptor coactivator 2 (SRC-2) recruitment by the peroxisome proliferator-activated receptor gamma (PPAR gamma): non-selective agonists. [Related pubchem assays: 1297, 1032 ]", "type": "functional"}, "Protein skinhead-1": {"target": "T2, Protein skinhead-1 (Caenorhabditis elegans, UniProt P34707)", "T2 sequence (P34707 whole entry)": "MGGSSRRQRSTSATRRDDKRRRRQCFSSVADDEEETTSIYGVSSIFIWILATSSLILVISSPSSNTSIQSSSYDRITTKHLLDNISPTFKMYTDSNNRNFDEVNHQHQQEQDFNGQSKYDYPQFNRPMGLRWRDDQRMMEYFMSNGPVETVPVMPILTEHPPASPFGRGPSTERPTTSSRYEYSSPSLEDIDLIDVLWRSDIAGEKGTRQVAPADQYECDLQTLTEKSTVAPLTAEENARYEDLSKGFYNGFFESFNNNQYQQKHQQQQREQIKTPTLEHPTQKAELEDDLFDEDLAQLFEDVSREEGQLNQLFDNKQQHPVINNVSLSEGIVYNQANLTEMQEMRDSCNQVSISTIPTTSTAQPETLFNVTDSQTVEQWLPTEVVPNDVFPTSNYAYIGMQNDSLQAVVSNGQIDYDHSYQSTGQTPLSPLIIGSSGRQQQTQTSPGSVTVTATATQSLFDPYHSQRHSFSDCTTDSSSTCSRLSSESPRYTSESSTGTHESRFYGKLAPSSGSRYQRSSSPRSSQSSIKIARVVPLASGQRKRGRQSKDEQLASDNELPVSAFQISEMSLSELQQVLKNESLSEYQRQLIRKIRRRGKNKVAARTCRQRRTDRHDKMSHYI", "type": "functional"}, "[9]": {"target": "T3, Polyadenylate-binding protein 1 (Homo sapiens, UniProt P11940)", "T3 sequence (P11940 whole entry)": "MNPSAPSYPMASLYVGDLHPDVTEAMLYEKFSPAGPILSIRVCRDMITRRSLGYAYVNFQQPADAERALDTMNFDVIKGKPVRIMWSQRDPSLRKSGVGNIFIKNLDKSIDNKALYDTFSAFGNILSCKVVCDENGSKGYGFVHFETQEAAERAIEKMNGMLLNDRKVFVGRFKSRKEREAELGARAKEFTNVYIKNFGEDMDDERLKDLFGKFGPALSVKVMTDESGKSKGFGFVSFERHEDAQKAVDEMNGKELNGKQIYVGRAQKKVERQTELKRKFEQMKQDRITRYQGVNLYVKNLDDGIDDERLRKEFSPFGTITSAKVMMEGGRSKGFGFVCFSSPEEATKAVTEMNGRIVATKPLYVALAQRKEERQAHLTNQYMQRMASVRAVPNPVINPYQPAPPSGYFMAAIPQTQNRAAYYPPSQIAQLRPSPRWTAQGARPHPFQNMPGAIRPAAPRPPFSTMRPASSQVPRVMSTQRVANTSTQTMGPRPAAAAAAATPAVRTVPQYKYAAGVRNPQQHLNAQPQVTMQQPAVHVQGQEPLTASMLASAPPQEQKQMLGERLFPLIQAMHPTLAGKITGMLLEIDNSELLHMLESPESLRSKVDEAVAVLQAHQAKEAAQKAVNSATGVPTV", "experiment": "MLLE binding blockers, Cy5 peptide tracer – biochemical, fluorescence polarization, Cy5-PAM2 peptide, secondary, miRNA deadenylation inhibitor project, dose response (AID 602260)", "type": "functional", "conditions": "read-out: IC50_Mean"}, "[10]": {"target": "T3, Polyadenylate-binding protein 1", "experiment": "MLLE domain peptide-binding blockers, IC50 – biochemical, fluorescence polarization, FITC-PAM2 peptide, dose response (AID 602259)", "type": "functional", "conditions": "read-out: IC50_Mean"}, "[11]": {"target": "Peroxisome proliferator-activated receptor gamma/Nuclear receptor coactivator 1 (Homo sapiens, UniProt P37231)", "experiment": "as §1, with “1 (SRC-1)” for “2 (SRC-2)”, “assays (depositor defined):AID1300, AID1808, AID504735, AID631]” for “assays: 1297, 1032 ]”", "type": "protein assay"}, "H9c2": {"system": "H9c2", "experiment": "cells", "type": "functional, cell-based", "conditions": "Rattus norvegicus, H9c2, Myocardium"}, "[12]": {"experiment": "HEK293 Cytotoxicity Assay Measured in Cell-Based System Using Plate Reader - 7071-01_Inhibitor_Dose_CherryPick_Activity_Set2.", "type": "functional"}, "HEK293": {"system": "HEK293", "experiment": "viability loss in HEK293T cells – cell-based, ATP luminescence, cherry-pick samples, cytotoxicity control, dose response (AID 687005)", "type": "functional", "conditions": "Homo sapiens"}, "Paired box protein Pax-8": {"target": "Paired box protein Pax-8 (Homo sapiens, UniProt Q06710)", "sequence (Q06710 whole entry)": "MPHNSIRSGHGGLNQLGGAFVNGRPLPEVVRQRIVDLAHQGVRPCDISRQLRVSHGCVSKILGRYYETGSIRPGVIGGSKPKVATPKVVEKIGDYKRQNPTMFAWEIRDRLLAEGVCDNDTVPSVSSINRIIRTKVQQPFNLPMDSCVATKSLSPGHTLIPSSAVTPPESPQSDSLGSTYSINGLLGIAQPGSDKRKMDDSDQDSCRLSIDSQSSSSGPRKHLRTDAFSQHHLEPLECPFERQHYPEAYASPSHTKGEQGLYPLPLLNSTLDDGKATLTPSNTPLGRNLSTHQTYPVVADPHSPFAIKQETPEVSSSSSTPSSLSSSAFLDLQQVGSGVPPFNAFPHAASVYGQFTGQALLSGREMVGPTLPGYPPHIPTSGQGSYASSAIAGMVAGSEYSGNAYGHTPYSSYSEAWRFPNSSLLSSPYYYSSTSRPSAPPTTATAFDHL", "experiment": "PAX8 transcriptional activity inhibition in RMG-I – RMG-I cells, luciferase, cherry-pick, dose response (AID 687027)", "type": "functional, cell-based"}, "[13]": {"experiment": "inhibitors acting on PAX2 in cells – cell-based, plate reader, dry powder samples, selectivity assay for PAX8 inhibitor project, dose response (AID 743048)", "type": "functional"}, "[14]": {"experiment": "PAX8-dependent cell viability loss – plate reader, dry powder, dose response (AID 743049)", "type": "functional, cell-based"}, "[15]": {"experiment": "YAP1 overexpression rescue of CTGF inhibition – DLD1 cells, RT-qPCR, cherry-pick, mechanism study for YAP1 pathway inhibitor project, dose response (AID 1053127)", "type": "functional, cell-based", "conditions": "DLD-1"}, "[16]": {"experiment": "P. falciparum Dd2 growth inhibitors, dose response, SYBR Green, cherry-picked samples (AID 1159567)", "type": "functional, cell-based"}, "[17]": {"experiment": "toxicity to human hepatoma HepG2 cells – cell-based, cherry-picked samples, cytotoxicity control, dose response (AID 1159577)", "type": "functional"}, "[18]": {"experiment": "blockers of HIV-1 envelope-mediated cell-cell fusion – cherry-pick, dose response (AID 652057)", "type": "functional, cell-based"}}, "note": "Activity calls are given as the source filed them.", "data": [{"smiles": "COc1ccc(C(=O)NCC(=O)OCc2ccccc2F)cc1", "values": [{"measurement": "AC50", "setting": "[1]", "value": "> 30 µM (inactive)"}]}, {"smiles": "Cc1ccc(NS(=O)(=O)c2ccc(Cl)c(NC(=S)NC(=O)C3CCCCC3)c2)cc1Cl", "values": [{"measurement": "EC50", "setting": "[2]", "value": "0.756 µM (active)"}, {"measurement": "AC50", "setting": "[3]", "value": "3.05 µM (active)"}, {"measurement": "EC50", "setting": "Streptokinase A", "value": "2.48 µM (active)"}, {"measurement": "AC50", "setting": "INS1", "value": "10.2 µM (active)"}, {"measurement": "IC50", "setting": "[4]", "value": "> 69.5 µM (inactive)"}, {"measurement": "EC50", "setting": "[5]", "value": "20.8 µM (active)"}, {"measurement": "EC50", "setting": "Streptococcus", "value": "4.65 µM (active)"}, {"measurement": "EC50", "setting": "[6]", "value": "19.8 µM (active)"}]}, {"smiles": "Cc1cc2cc(CNC(=O)c3ccc(S(=O)(=O)N4CCCCC4)cc3)ccc2n1C", "values": [{"measurement": "EC50", "setting": "[7]", "value": "8.51 µM (active)"}, {"measurement": "IC50", "setting": "Ephrin type-A receptor 4", "value": "15.8 µM (active)"}, {"measurement": "EC50", "setting": "[8]", "value": "3.37 µM (active)"}, {"measurement": "IC50", "setting": "Protein skinhead-1", "value": "> 100 µM (inactive)"}, {"measurement": "IC50", "setting": "[9]", "value": "> 66 µM (inactive)"}, {"measurement": "IC50", "setting": "[10]", "value": "> 66 µM (inactive)"}, {"measurement": "EC50", "setting": "[11]", "value": "3.8 µM (active)"}]}, {"smiles": "COc1ccc(S(=O)(=O)N2CCOCC2)cc1NC(=O)c1cccc2c(=O)c(C)c(-c3ccccc3)oc12", "values": [{"measurement": "IC50", "setting": "H9c2", "value": "> 79 µM (inactive)"}, {"measurement": "AC50", "setting": "[1]", "value": "> 30 µM (inactive)"}]}, {"smiles": "O=C(CN(c1ccc(F)cc1)S(=O)(=O)c1ccccc1)NC1CCCCCC1", "values": [{"measurement": "AC50", "setting": "[12]", "value": "33.4 µM (active)"}, {"measurement": "AC50", "setting": "HEK293", "value": "33.4 µM (active)"}]}, {"smiles": "C[C@H](CO)N1C[C@H](C)[C@H](CN(C)C(=O)Nc2ccc(-c3cccs3)cc2)OCc2cnnn2CCCC1=O", "values": [{"measurement": "AC50", "setting": "Paired box protein Pax-8", "value": "< 0.26 µM (active)"}, {"measurement": "AC50", "setting": "[13]", "value": "> 70 µM (inactive)"}, {"measurement": "AC50", "setting": "[14]", "value": "11.5 µM (active)"}]}, {"smiles": "CCNC(=O)c1cc2c(c(-c3cccc(-c4ccccc4F)c3)n1)[C@@H](CCO)N(C(=O)CC1CC1)C2", "values": [{"measurement": "AC50", "setting": "[15]", "value": "11 µM (active)"}, {"measurement": "AC50", "setting": "[16]", "value": "5.87 µM (active)"}]}, {"smiles": "COc1ccc2c3c(n(C)c2c1)[C@@H](CO)N(C(=O)C1CCOCC1)CC31CCN(Cc2cccc(F)c2)CC1", "values": [{"measurement": "AC50", "setting": "[17]", "value": "10.8 µM (active)"}, {"measurement": "AC50", "setting": "[16]", "value": "6.52 µM (active)"}, {"measurement": "AC50", "setting": "[18]", "value": "0.629 µM (active)"}]}]}
